{"source": "paper PMC7522982", "about": "“PKIS deep dive yields a chemical starting point for dark kinases and a cell active BRSK2 inhibitor” (Scientific Reports, 2020)", "key": {"[1]": {"target": "T1, MYLK3/caMLCK (Homo sapiens, UniProt Q32MK0)", "T1 construct": "purchased Eurofins DiscoverX Corporation", "experiment": "DiscoverX scanMAX competition binding assay", "description": "Based on its narrow profile when tested in the combined Nanosyn and TSA panels, GW296115 was included in the recently released Kinase Chemogenomic Set (KCGS)[15]. All of the data presented in the Introduction section was collected prior to the inclusion of GW296115 in KCGS and everything that follows has been subsequently generated. Since its inclusion in PKIS and more recently KCGS, we have carried out a broader round of screening at DiscoverX. This profiling data has not been previously released and is reported here for the first time. GW296115 was profiled against 403 wild type human kinases at 1 μM using the DiscoverX scanMAX screening platform, which employs an active site-directed competition binding assay to quantitatively measure interactions between test compounds and kinases, [16]. GW296115 inhibited 25 kinases > 90% at 1 μM, resulting in a selectivity index (S10) of 0.062 at 1 μM (Table S2, Fig. 1C)[17].\nThe scanMAX assays were performed at Eurofins DiscoverX Corporation as previously described."}, "[2]": {"target": "T2, NLuc-BRSK2 in HEK293 cells (Homo sapiens, UniProt Q8IWQ3)", "T2 construct": "host or cells: HEK293", "T2 sequence (Q8IWQ3 1-736)": "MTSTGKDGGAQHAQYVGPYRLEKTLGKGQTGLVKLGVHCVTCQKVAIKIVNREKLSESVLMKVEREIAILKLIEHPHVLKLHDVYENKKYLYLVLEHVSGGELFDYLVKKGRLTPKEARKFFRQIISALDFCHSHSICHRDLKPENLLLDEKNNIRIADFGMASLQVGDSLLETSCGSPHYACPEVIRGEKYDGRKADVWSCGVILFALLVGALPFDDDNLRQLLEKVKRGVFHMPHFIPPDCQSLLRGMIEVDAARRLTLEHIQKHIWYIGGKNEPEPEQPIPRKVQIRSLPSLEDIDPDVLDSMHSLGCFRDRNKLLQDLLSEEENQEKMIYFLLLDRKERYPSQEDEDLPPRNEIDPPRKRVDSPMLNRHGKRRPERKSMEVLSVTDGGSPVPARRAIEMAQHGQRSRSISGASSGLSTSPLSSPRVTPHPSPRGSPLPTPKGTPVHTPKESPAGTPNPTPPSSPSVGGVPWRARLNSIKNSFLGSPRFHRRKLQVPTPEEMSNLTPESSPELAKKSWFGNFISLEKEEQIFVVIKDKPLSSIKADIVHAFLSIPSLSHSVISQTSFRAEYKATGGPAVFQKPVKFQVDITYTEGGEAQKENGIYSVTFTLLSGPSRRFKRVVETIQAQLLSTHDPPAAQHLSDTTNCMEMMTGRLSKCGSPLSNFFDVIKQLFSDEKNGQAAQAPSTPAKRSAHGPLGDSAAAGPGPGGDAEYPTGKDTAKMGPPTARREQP", "experiment": "BRSK2 NanoBRET cellular target engagement assay", "format": "cell-based", "settings": "HEK293 cells transiently expressing NLuc-BRSK2; Tracer K5 1 μM; N = 3; read-out: BRSK2 NanoBRET data IC50", "description": "Our interest in illuminating BRSK2 biology motivated further investigation of the cellular target engagement of BRSK2 by GW296115 using our NanoBRET assay. BRSK2 kinase was fused to 19-kDa luciferase (NLuc) at its N-terminus (NLuc–BRSK2) which was transiently expressed in HEK293 cells, and then incubated with a cell-permeable fluorescent energy transfer probe (tracer)[23].\nNanoBRET assays were executed as described previously. Constructs for BRSK2 NanoBRET measurements were provided in kind by Promega. The N-terminal Nanoluciferase (NL)/BRSK2 fusion (NL-BRSK2) was encoded in pFN32K expression vector, including flexible Gly-Ser-Ser-Gly linkers between NL and BRSK2 (Promega). For cellular BRSK2 NanoBRET target engagement experiments, a 10 μg/mL solution of DNA in Opti-MEM without serum (Gibco) was prepared with 9 μg/mL of Carrier DNA (Promega) and 1 μg/mL of NL-BRSK2 to achieve a total volume of 1.05 mL. To this solution was then added 31.5 μL of FuGENE HD (Promega) to form a lipid:DNA complex, mixed by inversion 8 times, and incubated at room temperature for 20 min. The resulting transfection complex (1.082 mL) was next gently mixed with HEK293 cells (21 mL) suspended at a density of 2 × 10^5 cells/mL in DMEM containing 10% FBS.\nAfter 24 h, media was removed via aspiration and 85 μL of room temperature Opti-MEM without phenol red (Gibco) was added to each well. […] Next, 5 μL (20 × working stock of NanoBRET Tracer K5 [20 μM] in Tracer Dilution Buffer (Promega N291B)) was added to each well with the exception of the “no tracer” control wells. Test compounds were prepared as concentrated stock solutions in 100% DMSO (Sigma) at a concentration of 10 mM. […] A volume of 10 μL of tenfold test compound stock solutions (final assay concentration of […]) was added to each well. For “no compound” and “no tracer” control wells, 10 μL of Opti-MEM plus DMSO (9 μL Opti-MEM plus 1 μL DMSO) was added to each well to achieve a final concentration of 1% DMSO.\nAfter 2 h, plates were returned to room temperature over the course of 15 min. […] Next, 50 μL of the 3 × substrate/extracellular NL inhibitor stock was added to each well.\nTest compounds were evaluated at 8 concentrations in competition with NanoBRET Tracer K5 in HEK293 cells transiently expressing the NL-BRSK2 fusion protein. Raw milliBRET (mBRET) values were obtained by dividing the acceptor emission values (600 nm) by the donor emission values (450 nm), and then multiplying by 1000. Averaged control values were used to represent complete inhibition (no tracer control: transfected cells in Opti-MEM + DMSO; tracer control: transfected cells in Opti-MEM + DMSO + Tracer K5 only), and were plotted alongside the raw mBRET values. The data with n = 3 biological replicates was first normalized and then fit using Sigmoidal, 4PL binding curve in Prism Software (version 8, GraphPad, La Jolla, CA, USA)."}}}
{"smiles": "COc1ccc2[nH]c3c4[nH]c5ccc(OC)cc5c4c4c(c3c2c1)C(=O)NC4=O", "note": "[GW296115]", "values": [{"measurement": "inhibition at 1 µM", "setting": "[1]", "result": 80, "unit": "%"}, {"measurement": "IC50", "setting": "[2]", "result": "0.107 ± 0.028", "unit": "µM"}]}
